Calls of active or inactive are those of the source. The rule behind the calls is not given here. Bridge positions count the residues as written; N and C are the ends. Square brackets hold non-standard residues; d marks the D form. Peptide text beside a SMILES is read from it. NMeF = CN[C@@H](Cc1ccccc1)C(=O)O
Assays:
Mus musculus [1] = assay: Antinociceptive activity against Kunming mouse model of thermal-induced nociception assessed as prolongation of tail-flick latency period at 8.68 nmol/kg, sc in presence of NALM at 5 nmol/kg, icv measured up to 240 mins by tail-flick test; type: functional, organism-based; details: time min <=240
[2] = Toxicity in Kunming mouse assessed as effect on locomotor activity at 86.8 to 868.1 nmol/kg, po measured for 150 mins by open field test; type: organism-based; details: in vivo, 2.5 h, dose 86.8-868.1 nmol/kg
[3] = AUC (0 to infinity) in Kunming mouse at 868.1 nmol/kg, po measured up to 120 mins by LC-MS/MS analysis; type: ADME, organism-based; set-up: route oral, dose 868.1 nmol/kg, time <=120; details: in vivo, 2 h
[4] = MRT (0 to infinity) in Kunming mouse at 868.1 nmol/kg, iv measured up to 120 mins by LC-MS/MS analysis; type: ADME, organism-based; details: in vivo
[5] = Toxicity in Kunming mouse assessed as inhibition of gastrointestinal transit at 868.1 nmol/kg, po in presence of RF9 at 10 mg/kg, ip measured after 30 mins by charcoal meal test; type: organism-based; details: in vivo, 0.5 h
[6] = target: Neuropeptide FF receptor 2 (Homo sapiens, UniProt Q9Y5X5); assay: Agonist activity at NPFF2R (unknown origin) expressed in HEK293-A cells assessed as inhibition of forskolin-induced cAMP accumulation preincubated for 30 mins in presence of 3-isobutyl-1-methylxanthine followed by forskolin and compound addition by competitive PKA binding assay; type: functional, cell-based; details: read-out: EC50
Sequence of Neuropeptide FF receptor 2 (Q9Y5X5 whole entry): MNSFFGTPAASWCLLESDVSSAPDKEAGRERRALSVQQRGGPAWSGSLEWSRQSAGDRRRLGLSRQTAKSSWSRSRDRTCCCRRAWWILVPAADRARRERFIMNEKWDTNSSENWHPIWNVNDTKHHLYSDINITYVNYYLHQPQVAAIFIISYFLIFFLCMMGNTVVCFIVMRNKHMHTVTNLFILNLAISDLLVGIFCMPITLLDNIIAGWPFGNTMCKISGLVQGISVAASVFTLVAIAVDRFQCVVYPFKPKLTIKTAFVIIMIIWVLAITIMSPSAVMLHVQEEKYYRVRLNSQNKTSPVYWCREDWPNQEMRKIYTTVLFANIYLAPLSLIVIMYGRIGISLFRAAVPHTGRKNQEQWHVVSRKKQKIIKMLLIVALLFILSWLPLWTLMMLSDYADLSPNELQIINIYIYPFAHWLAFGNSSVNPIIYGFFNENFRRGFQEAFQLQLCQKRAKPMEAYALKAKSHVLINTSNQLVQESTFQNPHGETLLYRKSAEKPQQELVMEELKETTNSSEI

[7] = Cmax in Kunming mouse at 868.1 nmol/kg, iv measured up to 120 mins by LC-MS/MS analysis; type: ADME, organism-based; set-up: route intravenous, dose 868.1 nmol/kg, time <=120; details: in vivo
Mus musculus [8] = assay: Antinociceptive activity against Kunming mouse model of thermal-induced nociception assessed as prolongation of tail-flick latency period at 0.87 nmol/kg, po in presence of RF9 at 5 mg/kg, ip measured up to 240 mins by tail-flick test; type: functional, organism-based; details: time min <=240
Mus musculus [9] = assay: Antinociceptive activity against Kunming mouse model of thermal-induced nociception assessed as prolongation of tail-flick latency period at 8.68 nmol/kg, sc in presence of RF9 at 5 mg/kg, sc measured up to 240 mins by tail-flick test; type: functional, organism-based; details: time min <=240
Mus musculus [10] = assay: Antinociceptive activity against Kunming mouse model of thermal-induced nociception assessed as prolongation of tail-flick latency period at 2 pmol, icv in presence of nor-BNI measured up to 240 mins by tail-flick test; type: functional, organism-based; details: time min <=240
[11] = Toxicity in Kunming mouse assessed as effect on motor coordination at 86.8 to 868.1 nmol/kg, po measured after 10 to 40 mins by Rotarod test; type: organism-based; details: in vivo, dose lower 86.8 nmol/kg, time lower 10 min, dose upper 868.1 nmol/kg, time upper 40 min
Mus musculus [12] = assay: Antinociceptive activity against Kunming mouse model of thermal-induced nociception assessed as prolongation of tail-flick latency period at 8.68 nmol/kg, sc in presence of Nal at 1 mg/kg, sc measured up to 240 mins by tail-flick test; type: functional, organism-based; details: time min <=240
Mus musculus [13] = assay: Antinociceptive activity against Kunming mouse model of thermal-induced nociception assessed as prolongation of tail-flick latency period at 2 pmol, icv in presence of Nal measured up to 240 mins by tail-flick test; type: functional, organism-based; details: time min <=240
Mus musculus [14] = assay: Antinociceptive activity against po dosed Kunming mouse model of thermal-induced nociception assessed as prolongation of tail-flick latency period measured up to 240 mins by tail-flick test; type: functional; details: 4 h, time min <=240
[15] = MRT (0 to infinity) in Kunming mouse at 868.1 nmol/kg, po measured up to 120 mins by LC-MS/MS analysis; type: ADME, organism-based; details: in vivo
[16] = Toxicity in Kunming mouse assessed as effect on arterial bicarbonate level at 868.1 nmol/kg, po measured up to 30 mins by blood gas analyzer; type: organism-based; details: in vivo, 0.5 h
Mus musculus [17] = assay: Antinociceptive activity against Kunming mouse model of thermal-induced nociception assessed as prolongation of tail-flick latency period at 8.68 nmol/kg, sc in presence of nor-BNI at 1 mg/kg, sc measured up to 240 mins by tail-flick test; type: functional, organism-based; details: time min <=240
Mus musculus [18] = assay: Antinociceptive activity against Kunming mouse model of thermal-induced nociception assessed as prolongation of tail-flick latency period at 8.68 nmol/kg, sc in presence of beta-FNA at 1 mg/kg, sc measured up to 240 mins by tail-flick test; type: functional, organism-based; details: time min <=240
[19] = target: Neuropeptide FF receptor 1 (Homo sapiens, UniProt Q9GZQ6); assay: Agonist activity at NPFF1R (unknown origin) expressed in HEK293-A cells assessed as inhibition of forskolin-induced cAMP accumulation preincubated for 30 mins in presence of 3-isobutyl-1-methylxanthine followed by forskolin and compound addition by competitive PKA binding assay; type: functional, cell-based
Sequence of Neuropeptide FF receptor 1 (Q9GZQ6 whole entry): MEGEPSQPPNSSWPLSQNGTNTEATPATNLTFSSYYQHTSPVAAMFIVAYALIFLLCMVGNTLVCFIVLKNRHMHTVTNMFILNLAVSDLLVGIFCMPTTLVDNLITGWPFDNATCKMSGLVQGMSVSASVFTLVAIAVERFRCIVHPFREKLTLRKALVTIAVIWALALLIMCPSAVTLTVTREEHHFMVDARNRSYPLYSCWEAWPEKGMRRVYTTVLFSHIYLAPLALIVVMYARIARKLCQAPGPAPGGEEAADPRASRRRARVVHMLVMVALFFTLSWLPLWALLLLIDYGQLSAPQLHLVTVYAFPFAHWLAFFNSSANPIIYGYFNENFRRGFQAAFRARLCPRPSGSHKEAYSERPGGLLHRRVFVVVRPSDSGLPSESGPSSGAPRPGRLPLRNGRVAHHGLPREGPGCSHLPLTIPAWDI

Mus musculus [20] = assay: Antinociceptive activity against Kunming mouse model of thermal-induced nociception assessed as prolongation of tail-flick latency period at 8.68 nmol/kg, sc in presence of NTI at 1 mg/kg, sc measured up to 240 mins by tail-flick test; type: functional, organism-based; details: time min <=240
[21] = Toxicity in Kunming mouse assessed as effect on arterial pH at 868.1 nmol/kg, po measured up to 30 mins by blood gas analyzer; type: organism-based; details: in vivo, 0.5 h
Mus musculus [22] = assay: Antinociceptive activity against Kunming mouse model of thermal-induced nociception assessed as prolongation of tail-flick latency period at 2 pmol, icv in presence of bet-FNA measured up to 240 mins by tail-flick test; type: functional, organism-based; details: time min <=240
Mus musculus [23] = assay: Antinociceptive activity against Kunming mouse model of thermal-induced nociception assessed as prolongation of tail-flick latency period at 8.68 nmol/kg, po measured up to 240 mins by tail-flick test; type: functional, organism-based; details: time min <=240
Mus musculus [24] = assay: Antinociceptive activity against Kunming mouse model of thermal-induced nociception assessed as duration of analgesic effect administered subcutaneously by tail-flick test; type: functional
[25] = Clearance in Kunming mouse at 868.1 nmol/kg, iv measured up to 120 mins by LC-MS/MS analysis; type: ADME, organism-based; details: in vivo
[26] = Tmax in Kunming mouse at 868.1 nmol/kg, po measured up to 120 mins by LC-MS/MS analysis; type: ADME, organism-based; details: in vivo
[27] = target: Delta-type opioid receptor (Homo sapiens, UniProt P41143); assay: Agonist activity at DOR (unknown origin) expressed in HEK293-A cells assessed as inhibition of forskolin-induced cAMP accumulation preincubated for 30 mins in presence of 3-isobutyl-1-methylxanthine followed by forskolin and compound addition by competitive PKA binding assay relative to control; type: functional, cell-based; details: filed as agonist
Sequence of Delta-type opioid receptor (P41143 whole entry): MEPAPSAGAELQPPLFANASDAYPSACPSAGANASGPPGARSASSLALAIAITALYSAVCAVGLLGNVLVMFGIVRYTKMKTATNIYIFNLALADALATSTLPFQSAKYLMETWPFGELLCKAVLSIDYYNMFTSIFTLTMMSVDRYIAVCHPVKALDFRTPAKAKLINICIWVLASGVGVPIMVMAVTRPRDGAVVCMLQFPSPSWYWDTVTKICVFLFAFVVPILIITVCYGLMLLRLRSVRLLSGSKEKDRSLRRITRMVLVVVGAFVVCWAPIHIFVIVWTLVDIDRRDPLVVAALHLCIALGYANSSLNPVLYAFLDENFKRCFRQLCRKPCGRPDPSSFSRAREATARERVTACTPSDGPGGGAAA

Mus musculus [28] = assay: Antinociceptive activity against Kunming mouse model of thermal-induced nociception assessed as maximum possible effect at 8.68 nmol/kg, po measured after 60 min by tail flick test relative to control; type: functional; details: 1 h
Mus musculus [29] = assay: Antinociceptive activity in Kunming mouse assessed as analgesic tolerance by measuring fold shift in maximal possible effect at 8.68 nmol/kg, po administered for 8 consecutive days by tail flick test; type: functional
Mus musculus [30] = assay: Antinociceptive activity in Kunming mouse assessed as analgesic tolerance administered subcutaneously once daily for 8 days by tail flick test; type: functional, organism-based; details: time 8.0 day
[31] = Absolute oral bioavailability in Kunming mouse at 868.1 nmol/kg measured up to 120 mins by LC-MS/MS analysis; type: ADME, organism-based; details: in vivo

CN1C(=O)CNC(=O)[C@H](NC(=O)[C@@H](N)Cc2ccc(O)cc2)CCCCNC(=O)C[C@@H](C(=O)N2CCC[C@H]2C(=O)N[C@@H](CCC(N)=O)C(=O)N[C@@H](CCCNC(=N)N)C(=O)N[C@@H](Cc2ccccc2)C(N)=O)NC(=O)[C@@H]1Cc1ccccc1 (H-Y[dK]G[NMeF]DPQRF-NH2; lactam 2-5)
Activity (Mus musculus [1]): Active | Activity [2]: Non-Toxic | AUC [3]: 13800.8 µg·min/L | MRT inf [4]: 5 min | Activity [5]: Non-Toxic | EC50 [6]: 0.0498 µM | Cmax [7]: 5070 ng/mL | Activity (Mus musculus [8]): Active | Activity (Mus musculus [9]): Active | Activity (Mus musculus [10]): inactive | Activity [11]: Non-Toxic | Activity (Mus musculus [12]): inactive | Activity (Mus musculus [13]): inactive | ED50 (Mus musculus [14]): 0.00119 µmol/kg | MRT inf [15]: 279 min | Activity [16]: Non-Toxic | Activity (Mus musculus [17]): inactive | Activity (Mus musculus [18]): inactive | EC50 [19]: 0.58 µM | Activity (Mus musculus [20]): Active | Activity [21]: Non-Toxic | Activity (Mus musculus [22]): inactive | Activity (Mus musculus [23]): Active | Tlast (Mus musculus [24]): 240 min | clearance [25]: 30 mL/min/kg | Tmax [26]: 1 min | Emax [27]: 56.1% | MPE (Mus musculus [28]): 78.9% | fold change (FC) (Mus musculus [29]): 0.92 | Activity (Mus musculus [30]): inactive | bioavailability [31]: 43.8%
